Measurements reported in publication PMC1315280, “The Flavoring Agent Dihydrocoumarin Reverses Epigenetic Silencing and Inhibits Sirtuin Deacetylases” (PLoS Genetics, 2005).

Target: T1, SIRT1 (Homo sapiens, UniProt Q96EB6)
T1 construct: recombinant SIRT1
T1 sequence (Q96EB6 2-747): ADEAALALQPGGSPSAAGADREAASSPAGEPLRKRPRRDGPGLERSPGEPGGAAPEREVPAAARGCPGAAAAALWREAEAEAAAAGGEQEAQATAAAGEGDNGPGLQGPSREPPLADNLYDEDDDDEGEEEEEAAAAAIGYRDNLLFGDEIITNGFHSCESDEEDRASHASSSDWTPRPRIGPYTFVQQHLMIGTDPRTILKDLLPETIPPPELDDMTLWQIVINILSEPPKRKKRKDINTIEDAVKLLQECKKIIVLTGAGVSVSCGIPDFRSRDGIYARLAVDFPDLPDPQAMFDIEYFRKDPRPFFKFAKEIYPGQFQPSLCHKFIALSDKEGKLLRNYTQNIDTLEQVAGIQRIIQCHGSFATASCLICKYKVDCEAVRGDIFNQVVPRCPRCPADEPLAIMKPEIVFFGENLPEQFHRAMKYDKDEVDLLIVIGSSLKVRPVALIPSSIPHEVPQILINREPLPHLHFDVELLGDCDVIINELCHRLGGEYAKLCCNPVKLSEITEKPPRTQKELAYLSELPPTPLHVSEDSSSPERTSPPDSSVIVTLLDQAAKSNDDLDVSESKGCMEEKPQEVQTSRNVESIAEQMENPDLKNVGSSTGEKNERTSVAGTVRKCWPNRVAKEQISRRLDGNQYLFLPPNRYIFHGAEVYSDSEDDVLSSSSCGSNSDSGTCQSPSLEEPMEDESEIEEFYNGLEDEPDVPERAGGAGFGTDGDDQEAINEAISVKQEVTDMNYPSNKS
Experiment: in vitro deacetylase assay with recombinant enzyme and [3H] acetylated histone H4 peptide
Format: biochemical

SMILES: O=C1CCc2ccccc2O1 [DHC, dihydrocoumarin]
- IC50: 208 µM
